{"source": "patent US4980283A", "about": "“Renin-inhibitory pepstatin phenyl derivatives” (Merck & Co., Inc., priority 1989, dated 1990)", "key": {"hog renin": {"tested_on": "hog renin", "details": "after the injection of hog renin into nephrectomized rats; cited from earlier work"}, "[1]": {"tested_on": "renin enzyme prepared from hog kidney", "experiment": "Renin assay (solid phase radioimmunoassay of angiotensin I)", "type": "biochemical", "details": "ratio of renin I50 to pepsin I50", "protocol": "The compound of Example 1 was evaluated against renin, employing a solid phase radioimmunossay adapted and modified from the assay of Ikedo et al., W. of Clinical Endocrinology and Metabolism, 54, 423-428, 1982), and pepsin assays as illustrated below:\nTen μl of the test inhibitor/broth extract from Example 1 was mixed with 5 μl of 0.11M phenylmethylsulfonyl fluoride and 0.25 ml of 0.1M potassium phosphate buffer, pH 7.0, containing 0.05% sodium azide and one mg/ml of bovine serum albumin. Twenty μl of 2 μg renin enzyme prepared from hog kidney was added and the mixture was incubated at 37° C. for 20 minutes. The enzyme reaction was initiated by adding 20 μl of substrate solution which was prepared by dissolving 4 mg of angiotensinogen in 4 ml of 0.1M potassium phosphate buffer, pH 7.0, containing 0.05% sodium azide and 1 mg/ml of BSA.\nAfter 20 minutes' incubation at 37° C., the enzyme reaction was stopped by the addition of 100 μl of ^125 I-angiotensin I tracer-pepstatin. […] Two ml of water was then added to each tube and the solution was aspirated, with the tube with the ball being counted in a γ-counter.\nThe activity of the test compound was calculated based on the standard curve of known amount of angiotensin I."}}, "note": "Square brackets hold non-standard residues; d marks the D form. Peptide text beside a SMILES is read from it. * marks the point of attachment. Sta = CC(C)C[C@H](N)[C@@H](O)CC(=O)O; Isovaleryl = CC(C)CC(=O)*", "data": [{"smiles": "CC(C)CC(=O)N[C@H](C(=O)N[C@H](C(=O)N[C@@H](CC(C)C)[C@@H](O)CC(=O)N[C@@H](C)C(=O)N[C@@H](CC(C)C)[C@@H](O)CC(=O)O)C(C)C)C(C)C", "note": "[Pepstatin A] (Isovaleryl-VV[Sta]A[Sta]-OH)", "values": [{"measurement": "blood pressure in vivo", "setting": "hog renin", "value": "reduces blood pressure"}, {"measurement": "I50 ratio of renin/pepsin", "setting": "[1]", "value": 1160}]}]}
